Assay results published in US20150315188A1, “COMPOUNDS AND METHODS FOR TREATMENT OF HYPERTENSION” (MEDIVATION TECHNOLOGIES, INC., priority 2012, published 2015).

Columns and labels:
[1] = target: T1, Human adrenergic α2A receptor (Homo sapiens, UniProt P08913); test: β-Arrestin GPCR functional assay, adrenergic α2A (Protocol B); format: cell-based; settings: for IC50: β-arrestin, antagonist vs nor-epinephrine EC80
T1 sequence (P08913 1-465): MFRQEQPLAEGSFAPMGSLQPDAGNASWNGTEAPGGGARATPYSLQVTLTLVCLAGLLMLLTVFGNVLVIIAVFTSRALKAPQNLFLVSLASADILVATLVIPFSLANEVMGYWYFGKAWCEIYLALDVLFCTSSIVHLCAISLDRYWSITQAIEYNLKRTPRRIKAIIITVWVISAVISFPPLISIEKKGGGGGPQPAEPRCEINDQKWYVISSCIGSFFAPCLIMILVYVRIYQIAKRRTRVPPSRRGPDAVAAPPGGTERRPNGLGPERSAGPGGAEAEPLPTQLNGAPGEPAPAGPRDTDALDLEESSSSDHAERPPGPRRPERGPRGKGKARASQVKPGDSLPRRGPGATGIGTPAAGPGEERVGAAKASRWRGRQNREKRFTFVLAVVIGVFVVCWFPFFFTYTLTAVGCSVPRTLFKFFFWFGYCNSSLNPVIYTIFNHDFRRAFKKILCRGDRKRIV
Procedure, shortened: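 PathHunter CHO cells overexpressing human α2A receptor were preincubated with compounds (1% DMSO final) for 30 min at 37 °C, then stimulated 90 min with norepinephrine at EC80 (270 nM). β-Arrestin recruitment read by chemiluminescence after 60 min detection; reported as % inhibition or IC50.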

[2] = target: T2, Human adrenergic α2B receptor (Homo sapiens, UniProt P18089); test: Radioligand binding, adrenergic α2B (Protocol Group B); parameters: purchased Milipore (Millipore); settings: for Percentage inhibition of ligand binding, Adrenergic α2B (10 nM) / inhibition at 0.01 µM: 10 nM compound; for Percentage inhibition of ligand binding, Adrenergic α2B (10 nM) / Percentage inhibition of ligand binding, Adrenergic α2B (30 nM) / Percentage inhibition of ligand binding, Adrenergic α2B (0.1 μM) / Ki / inhibition at 0.01 µM / inhibition at 0.03 µM / inhibition at 0.1 µM: Protocol Group B; for Percentage inhibition of ligand binding, Adrenergic α2B (10 nM): 0.01 µM; for Percentage inhibition of ligand binding, Adrenergic α2B (30 nM) / inhibition at 0.03 µM: 30 nM compound; for Percentage inhibition of ligand binding, Adrenergic α2B (30 nM): 0.03 µM; for Percentage inhibition of ligand binding, Adrenergic α2B (0.1 μM) / inhibition at 0.1 µM: 0.1 μM compound; for Ki: estimated Ki, read-out: Ki α2B; for inhibition at 0.01 µM: read-out: Percentage inhibition of ligand binding, Adrenergic α2B (10 nM); for inhibition at 0.03 µM: read-out: Percentage inhibition of ligand binding, Adrenergic α2B (30 nM); for inhibition at 0.1 µM: read-out: Percentage inhibition of ligand binding, Adrenergic α2B (0.1 μM)
T2 sequence (P18089 1-450): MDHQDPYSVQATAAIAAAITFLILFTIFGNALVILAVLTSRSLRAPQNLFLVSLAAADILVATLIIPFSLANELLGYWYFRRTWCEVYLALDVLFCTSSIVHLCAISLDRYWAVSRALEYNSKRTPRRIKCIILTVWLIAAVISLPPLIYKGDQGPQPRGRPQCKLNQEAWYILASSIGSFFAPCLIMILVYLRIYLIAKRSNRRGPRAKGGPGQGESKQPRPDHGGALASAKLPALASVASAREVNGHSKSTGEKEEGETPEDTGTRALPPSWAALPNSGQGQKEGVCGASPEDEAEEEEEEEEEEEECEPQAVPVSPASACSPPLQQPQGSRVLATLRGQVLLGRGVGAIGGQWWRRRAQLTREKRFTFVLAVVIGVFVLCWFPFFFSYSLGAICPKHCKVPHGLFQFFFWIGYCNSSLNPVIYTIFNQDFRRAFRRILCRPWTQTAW
Procedure, shortened: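 Recombinant human α2B receptor membranes incubated with compounds in 50 mM Tris-HCl pH 7.4, 5 mM MgCl2, 1 mM CaCl2, 0.2% BSA, 1% DMSO vehicle. Non-specific binding defined with 10 μM rauwolscine. Values are percent inhibition of specific binding or estimated Ki.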

[3] = target: T3, Human adrenergic α1B receptor (Homo sapiens, UniProt P35368); test: β-Arrestin GPCR functional assay, adrenergic α1B (Protocol B); format: cell-based; settings: for IC50: β-arrestin, antagonist vs nor-epinephrine EC80
T3 sequence (P35368 1-520): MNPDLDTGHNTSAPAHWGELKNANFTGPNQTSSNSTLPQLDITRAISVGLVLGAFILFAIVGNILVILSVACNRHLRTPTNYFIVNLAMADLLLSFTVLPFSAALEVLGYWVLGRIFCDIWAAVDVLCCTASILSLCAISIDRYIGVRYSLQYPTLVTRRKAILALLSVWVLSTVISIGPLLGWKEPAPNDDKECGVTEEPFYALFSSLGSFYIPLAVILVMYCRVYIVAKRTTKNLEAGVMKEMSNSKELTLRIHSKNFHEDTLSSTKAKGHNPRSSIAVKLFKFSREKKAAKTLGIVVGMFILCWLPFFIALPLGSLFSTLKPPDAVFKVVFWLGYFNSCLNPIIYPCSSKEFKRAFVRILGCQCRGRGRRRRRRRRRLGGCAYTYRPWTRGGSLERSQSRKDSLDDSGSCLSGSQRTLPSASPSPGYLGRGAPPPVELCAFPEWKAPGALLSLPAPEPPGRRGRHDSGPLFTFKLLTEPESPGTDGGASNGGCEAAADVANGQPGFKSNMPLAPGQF
Method: To evaluate the activity of compounds in β-Arrestin GPCR functional assays, recombinant CHO cell line (DiscoveRX), over expressed with human adrenergic α1B receptor were used. The experiment was done with a kit of DiscoveRX as per recommended protocol of the supplier. Cells were harvested from culture flask using cell dissociation solution (CDS) and plated at a density of 12,000 cells/well in CP reagent (supplied with the kit) in a half area 96-well white polystyrene plate. After 24 h incubation at 37° C., compounds at various concentrations in 1% (final) DMSO were charged to the cells for 30 min at 37° C. Active nor-epinephrine (-NE) at its EC80 concentrations (50 nM) were then added to the cells and incubated for another 90 min at 37° C. Detection mix was prepared by mixing Path Hunter cell assay buffer, Emerald II solution and Galactone star solution in a ratio of 19:5:1 and incubated with the cells for 60 min at RT in the dark. The reading was taken in Envision at luminescence mode. Biochemical assay results are presented as the percent Inhibition in Table B2a, or IC50 values in Table B2b.

Structure (SMILES)	IC50 [1]	Percentage inhibition of ligand binding, Adrenergic α2B (10 nM) [2]	Percentage inhibition of ligand binding, Adrenergic α2B (30 nM) [2]	Ki [2]	IC50 [3]	inhibition at 0.01 µM [2]	inhibition at 0.03 µM [2]	inhibition at 0.1 µM [2]	also measured
CC(O)(Cn1c2c(c3cc(Cl)cc(F)c31)C1CCCN1CC2)c1ccncc1 (single isomer, unassigned) [52b]	992 nM	94%	96%	0.71 nM	224 nM	–	–	–	Percentage inhibition of ligand binding, Adrenergic α2B (0.1 μM) ([2]; 0.1 µM): 99%
Cc1ccc2c(c1)c1c(n2CC(OCC2CCC2)c2ccncc2)CCN(C)C1 (single isomer, unassigned) [59a]	1570 nM	–	–	1 nM	350 nM	93%	98%	100%	–
Cc1cc(F)cc2c3c(n(CC(C)(O)c4cccnc4)c12)CCN1CCCC31 (single isomer, unassigned) [75a]	2080 nM	8%	40%	–	719 nM	–	–	87%	–
Cc1cc(Cl)c2c(c1)c1c(n2CC(C)(O)c2ccncc2)CCN2CCCC12 (single isomer, unassigned) [91a]	865 nM	–	–	0.7 nM	213 nM	93%	95%	–	–
Cc1cc(Cl)c2c(c1)c1c(n2CC(C)(O)c2ccncc2)CCN2CCCC12 (single isomer, unassigned) [91b]	1780 nM	95%	97%	0.93 nM	283 nM	–	–	–	–
OC(Cn1c2c(c3cc(Cl)cc(F)c31)C1CCCN1CC2)c1ccncc1 (single isomer, unassigned) [135a]	4350 nM	–	–	2.95 nM	189 nM	79%	93%	–	–
Cc1ccc2c(c1)c1c(n2CC(OCC2CCC2)c2ccncc2)CCN2CCCC12 (single isomer, unassigned) [138b]	1330 nM	82%	81%	1.45 nM	926 nM	–	–	–	–
Cc1ccc2c(c1)c1c(n2CC(O)c2ccncc2)CC[N+]2([O-])CCCC12 (stereo not shown) [compound 23, 7-(2-hydroxy-2-(pyridin-4-yl)ethyl)-10-methyl-1,2,3,4,5,6,7,11c-octahydroindolizino[7,8-b]indole 4-oxide]	–	–	–	2.24 nM	1210 nM	65%	88%	92%	inhibition at 0.1 µM ([1]; 0.1 μM compound, nor-epinephrine at EC80 (270 nM), read-out: Percentage inhibition, Adrenergic α2A): 1%; inhibition at 0.3 µM ([1]; 0.3 μM compound, nor-epinephrine at EC80 (270 nM), read-out: Percentage inhibition, Adrenergic α2A): 1%; inhibition at 0.0001 µM ([2]; 0.1 nM compound, concentration series, read-out: Percentage inhibition of ligand binding, Adrenergic α2B, 0.1 nM): 13%; inhibition at 0.00032 µM ([2]; 0.32 nM compound, concentration series, read-out: Percentage inhibition of ligand binding, Adrenergic α2B, 0.32 nM): 5%; inhibition at 0.001 µM ([2]; 1 nM compound, concentration series, read-out: Percentage inhibition of ligand binding, Adrenergic α2B, 1 nM): 2%; inhibition at 0.0032 µM ([2]; 3.2 nM compound, concentration series, read-out: Percentage inhibition of ligand binding, Adrenergic α2B, 3.2 nM): 40%; inhibition at 0.32 µM ([2]; 0.32 μM compound, concentration series, read-out: Percentage inhibition of ligand binding, Adrenergic α2B, 0.32 μM): 105%; inhibition at 0.1 µM ([3]; 0.1 μM compound, nor-epinephrine at EC80 (50 nM), read-out: Percentage inhibition, Adrenergic α1B): 15%; inhibition at 0.3 µM ([3]; 0.3 μM compound, nor-epinephrine at EC80 (50 nM), read-out: Percentage inhibition, Adrenergic α1B): 15%
Cc1ccc2c(c1)c1c(n2C[C@@H](OC2CCCC2)c2ccncc2)CCN2CCC[C@H]12 [compound 82, (11cR)-7-[(25)-2-(cyclopentoxy)-2-(4-pyridyl)ethyl]-10-methyl-1,2,3,5,6,11c-hexahydroindolizino[7,8-b]indole]	675 nM	–	–	1.59 nM	382 nM	98%	99%	–	–

Now those with a lower IC50 [3], led by results:

IC50 [1]	Percentage inhibition of ligand binding, Adrenergic α2B (10 nM) [2]	Percentage inhibition of ligand binding, Adrenergic α2B (30 nM) [2]	Ki [2]	IC50 [3]	inhibition at 0.01 µM [2]	inhibition at 0.03 µM [2]	inhibition at 0.1 µM [2]	Structure (SMILES)	also measured
1020 nM	–	–	0.84 nM	149 nM	99%	100%	101%	CC(O)(Cn1c2c(c3cc(Cl)cc(F)c31)C1CCCN1CC2)c1ccncc1 (single isomer, unassigned) [52a]	–
5100 nM	83%	–	1.5 nM	114 nM	–	96%	–	Cc1cc(F)c2c(c1)c1c(n2CC(O)c2ccncc2)CCN2CCCC12 (single isomer, unassigned) [137a]	–
295 nM	84%	83%	0.69 nM	102 nM	–	–	–	OC(Cn1c2c(c3cc(Cl)cc(F)c31)C1CCCN1CC2)c1ccncc1 (single isomer, unassigned) [135b]	–
1250 nM	–	–	0.91 nM	91 nM	96%	99%	99%	Cc1cc(F)c2c(c1)c1c(n2CC(C)(O)c2ccncc2)CCN2CCCC12 (single isomer, unassigned) [81a]	–
413 nM	–	–	0.95 nM	72.2 nM	91%	90%	–	Cc1ccc2c(c1)c1c(n2CC(OCC2CCC2)c2ccncc2)CCN2CCCC12 (single isomer, unassigned) [138a]	–
565 nM	98%	100%	0.75 nM	54 nM	–	–	–	Cc1cc2c3c(n(CC(C)(O)c4ccncc4)c2cc1Cl)CCN1CCCC31 (single isomer, unassigned) [50b]	Percentage inhibition of ligand binding, Adrenergic α2B (0.1 μM) [2]: 100%
185 nM	106%	107%	0.79 nM	35.6 nM	–	–	–	Cc1cc(F)c2c(c1)c1c(n2CC(O)c2ccncc2)CCN2CCCC12 (single isomer, unassigned) [137b]	–
